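All cell lines were grown in 96-well plates and treated with compound for 48 hours. Abbreviation: GI50, concentration required for 50% inhibition of growth. At the TGI there is no net growth.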
Assays:
Assay in all cases: NCI tumour cell line growth inhibition, 48 h
HOP-92 NSCLC = test system: HOP-92 NSCLC
OVCAR-3 ovarian = test system: OVCAR-3 ovarian
786-0 renal = test system: 786-0 renal
UO-31 renal = test system: UO-31 renal
CCRF-CEM leukemia = test system: CCRF-CEM leukemia
SR leukemia = test system: SR leukemia
TK-10 renal = test system: TK-10 renal
M14 melanoma = test system: M14 melanoma
SNB-75 CNS = test system: SNB-75 CNS
RXF 393 renal = test system: RXF 393 renal

| Compound | GI50 (HOP-92 NSCLC) [µM] | TGI (HOP-92 NSCLC) [µM] | GI50 (OVCAR-3 ovarian) [µM] | TGI (OVCAR-3 ovarian) [µM] | GI50 (786-0 renal) [µM] | TGI (786-0 renal) [µM] | GI50 (UO-31 renal) [µM] | TGI (UO-31 renal) [µM] | GI50 (CCRF-CEM leukemia) [µM] | TGI (CCRF-CEM leukemia) [µM] | GI50 (SR leukemia) [µM] | TGI (SR leukemia) [µM] | GI50 (TK-10 renal) [µM] | TGI (TK-10 renal) [µM] | GI50 (M14 melanoma) [µM] | TGI (M14 melanoma) [µM] | GI50 (SNB-75 CNS) [µM] | TGI (SNB-75 CNS) [µM] | GI50 (RXF 393 renal) [µM] | TGI (RXF 393 renal) [µM] |
| --- | --- | --- | --- | --- | --- | --- | --- | --- | --- | --- | --- | --- | --- | --- | --- | --- | --- | --- | --- | --- |
| CC1(C)CCc2c(c3c(c4c(=O)c(O)c(-c5ccc(O)cc5)oc24)OC(C)(C)CC3)O1 | 14.6 | 38.2 | 49.9 | > 100 | 37.7 | > 100 | > 100 | > 100 | > 100 | > 100 | > 100 | > 100 | 36.6 | > 100 | > 100 | > 100 | 19.5 | 41.9 |  |  |
| Clc1ccc2c(NCCCCNc3nc(N4CCCCC4)nc4ccccc34)ccnc2c1 | 1.56 | 3.39 | 1.95 | 4.89 | 1.44 | 2.76 | 1.47 | 3.05 | 1.66 | 5.23 | 0.408 | 2.88 | 1.68 | 3.5 | 1.62 | 3.14 | 1.32 | 3.13 | 1.66 | 3.37 |
| Cc1nc2ccccc2c(N)c1-c1cc(C)c2c(C)nc3ccccc3c2n1 | 1.46 | 3.38 | 0.69 | 1.83 | 1.16 | 2.45 | 0.78 | 2.26 | 0.362 | 2.12 | 0.19 | 2.59 | 1.44 | 2.78 | 1.34 | 2.65 | 1.52 | 3.16 | 0.182 | 0.737 |
| Cn1cnc([N+](=O)[O-])c1Sc1nnc(-c2cccnc2)n1C |  | 30.6 |  | 35.1 |  | 41.6 |  | 53.8 |  | 45 |  | 45.5 |  | 32.8 |  | 35.4 |  | > 100 |  | 23.9 |
| O=C(/C=C/c1ccccc1)NC1C=Nc2ccc(Cl)cc2NC1=O (stereo unspecified) |  | > 100 |  | 56.4 |  | > 100 |  | 87.8 |  | 33.5 |  | 56.3 |  | > 100 |  | 65.6 |  | 62.9 |  | 52.4 |
| O=S(=O)(NC1=NCCN1C(=S)SN1CCn2c1nsc2=S)c1ccc(OC(F)(F)F)cc1 | 25.1 | 44.1 | 7.63 | 22.9 | 8.53 | 21.6 | 20.5 | 41.5 | 4.01 | > 100 | 1.74 | 5.76 | 11.3 | 24.6 | 25.9 | > 100 | 14.7 | 34.4 | 2.77 | 8.1 |
| COc1ccc(-c2nc3sccn3c2/C(N)=N/C(=N)N)cc1OC | 56.5 | > 100 | 31.8 | > 100 | 32.9 | > 100 | 7.37 | 40.2 | 38.4 | > 100 | 30.5 | 77.3 | 28.6 | > 100 | 29.4 | 79.5 |  |  | > 100 | > 100 |
